Test results taken from PMC10287669, “[1,2,4]triazolo[3,4-b][1,3,4]thiadiazole derivatives as new therapeutic candidates against urease positive microorganisms: design, synthesis, pharmacological evaluations, and in silico studies” (Scientific Reports, 2023).
≈ marks a conversion by molar mass, not a printed value. Read-outs that look alike come from different tables or passages of the source.

How the values were obtained:
[1] = tested on: urease; details: cited from earlier work
[2] = biological target: Jack bean urease (Canavalia ensiformis, UniProt P07374); experiment: Screening of urease inhibitory activities (indophenol method, enzymatic); format: biochemical
Description: Urease inhibition effects of the synthesized compounds were determined according to the previously reported procedure[37]–[39]. Briefly, 100 μL of the synthesized compounds at different concentrations was added to 850 μL of urea as substrate and 50 μL urease (3 mg/mL) in phosphate buffer, pH = 7.4). After 30 min, to 100 μL of the incubated solution, 500 μL of solution I (5.0 g phenol and 25.0 mg sodium nitroprusside in 500 mL water) was added, followed by the addition of 500 μL of solution II (2.5 g sodium hydroxide, 4.2 mL sodium hypochlorite, and 5% chlorine in 500 mL water) which was further incubated at 37 °C for 30 min. The absorbance of blue-colored indophenol of each cell is related to the percentage of enzyme inhibition using the following equation at 625 nm. The IC50 values for all synthesized compounds were calculated using GraphPad Prism software (GraphPad Software, Inc., San Diego, CA).

[3] = tested on: Cryptococcus neoformans (H99); experiment: In vitro antimicrobial activity, CLSI microbroth dilution (yeast); format: cell-based
Description: The antimicrobial activities of all derivatives against C. neoformans (H99), and clinical isolate of P. mirabilisas urease positive microorganism, were tested as recommended by the Clinical and Laboratory Standards Institute (CLSI) (M07-A9 for bacteria; M27-A3 for yeasts). The compounds were diluted, and stock solutions of 20 mg/mL in DMSO were prepared. Mueller–Hinton Broth (HiMedia) and RPMI-1640 (Sigma) were prepared as recommended for antimicrobial susceptibility testing of bacterial and fungal strains, respectively. Two-fold dilutions were made in the range of 1–512 μg/mL for tested compounds. The microbroth dilution test was accomplished using a 96-well microtiter plate containing growth control (drug free wellls) and sterility control (only broth media). The antimicrobial susceptibility test was accomplished by adding a cell suspension adjusted to the 0.5 McFarland standard (1–2 × 10^8 CFU/mL for bacterial strains; 1–5 × 10^6 cells/mL for yeast) to different concentrations of tested compounds. […] All experiments were performed in duplicates.

[4] = tested on: Proteus mirabilis; experiment: In vitro antimicrobial activity, CLSI microbroth dilution (bacteria); format: cell-based; details: clinical isolate
Description: M27-A3 for yeasts). The compounds were diluted, and stock solutions of 20 mg/mL in DMSO were prepared. Mueller-Hinton Broth (HiMedia) and RPMI-1640 (Sigma) were prepared as recommended for antimicrobial susceptibility testing of bacterial and fungal strains, respectively. Two-fold dilutions were made in the range of 1-512 μg/mL for tested compounds. […] All experiments were performed in duplicates.

[5] = tested on: C. neoformans (H99); experiment: Anti-ureolytic activity, colorimetric urea broth microdilution; format: cell-based, Cryptococcus neoformans; details: read after three days, means ± SD of 3 independent experiments; for IC50: Cryptococcus neoformans, 72 h
Description: (§1) The colorimetric microdilution technique using urea broth media (Merck) was used to examine the ureolytic activity of C. neoformans (H99), and clinical isolate of P. mirabilis treated with tested substances (supplemented with glucose; pH = 6 for C. neoformans). Compounds in the concentration range of 1 to 512 μg/mL were exposed to ureolytic microorganisms, and the color of the medium was evaluated visually and spectroscopically at 560 nm after three days for C. neoformans and 24 h for P. mirabilis. The positive control, which included ureolytic bacteria but no drugs, changed color from yellow to dark pink or magenta. This shifts, allowing the determination of the inhibitory activity of compounds against the urease activity of organisms even without a microliter plate reader[45],[46].

[6] = tested on: P. mirabilis; experiment: as above; format: cell-based, Proteus mirabilis; details: read after 24 h, means ± SD of 3 independent experiments; for IC50: Proteus mirabilis, read-out: urease inhibitory activity IC50 (µg/mL) ± SD
Description: as §1

[7] = urease enzymatic assessment, mean ± SD of three independent experiments, read-out: IC50 (µM) ± SD
[8] = C. neoformans, read-out: urease inhibitory activity IC50 (µg/mL) ± SD

Chain of Jack bean urease (P07374 whole entry, looked up): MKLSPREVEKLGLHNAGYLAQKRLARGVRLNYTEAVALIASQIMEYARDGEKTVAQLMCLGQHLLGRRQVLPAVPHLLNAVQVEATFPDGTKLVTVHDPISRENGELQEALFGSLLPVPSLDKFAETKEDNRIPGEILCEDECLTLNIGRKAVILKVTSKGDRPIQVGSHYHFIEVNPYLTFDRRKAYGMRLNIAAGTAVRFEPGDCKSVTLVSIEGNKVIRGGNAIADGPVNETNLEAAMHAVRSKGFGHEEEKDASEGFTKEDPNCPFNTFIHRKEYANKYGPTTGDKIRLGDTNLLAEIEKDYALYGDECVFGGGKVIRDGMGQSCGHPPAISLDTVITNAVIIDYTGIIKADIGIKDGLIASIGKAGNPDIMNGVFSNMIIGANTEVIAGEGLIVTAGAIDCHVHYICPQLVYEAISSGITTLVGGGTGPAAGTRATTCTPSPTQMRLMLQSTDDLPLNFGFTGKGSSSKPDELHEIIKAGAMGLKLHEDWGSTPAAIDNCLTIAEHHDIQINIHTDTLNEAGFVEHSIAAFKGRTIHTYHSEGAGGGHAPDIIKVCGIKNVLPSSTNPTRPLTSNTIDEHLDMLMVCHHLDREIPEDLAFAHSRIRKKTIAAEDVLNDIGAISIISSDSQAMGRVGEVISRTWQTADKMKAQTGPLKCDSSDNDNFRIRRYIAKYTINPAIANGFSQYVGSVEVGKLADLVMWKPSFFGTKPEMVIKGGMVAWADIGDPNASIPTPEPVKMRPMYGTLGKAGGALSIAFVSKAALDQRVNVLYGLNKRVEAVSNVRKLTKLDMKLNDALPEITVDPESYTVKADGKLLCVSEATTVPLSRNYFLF

SMILES	IC50 [2]	MIC ([3]; read-out: MIC)	MIC ([4]; read-out: MIC)	IC50 [5, 8]	IC50 [6]	melting point	other results
Cc1ccc(-n2c(C(O)c3ccccc3)n[nH]c2=S)cc1 (centres unmarked) [A]	–	–	–	–	–	–	IC50 ([1]; urease, read-out: IC50): 16700 ± 178 nM
Brc1ccc(CSc2nn3c(-c4ccccc4)nnc3s2)cc1 [Compound 6k, 6-((4-bromobenzyl)thio)-3-phenyl-[1,2,4]triazolo[3,4-b][1,3,4]thiadiazole]	–	–	–	–	–	–	IC50 [2, 7]: 1.53 ± 0.17 µM; MIC [3]: > 256 µg/mL; MIC [4]: 256 µg/mL (≈ 635 µM); urease inhibitory activity IC50 (µg/mL) ± SD ([5]; C. neoformans): 118.7 ± 5.5 µg/mL; urease inhibitory activity IC50 (µg/mL) ± SD [6]: 113.7 ± 4.6 µg/mL
Fc1ccc(CSc2nn3c(-c4ccccc4)nnc3s2)cc1 [Compound 6d, 6-((4-fluorobenzyl)thio)-3-phenyl-[1,2,4]triazolo[3,4-b][1,3,4]thiadiazole]	1.01 ± 0.13 µM	> 256 µg/mL	256 µg/mL (≈ 748 µM)	118 ± 8.6 µg/mL (≈ 344 µM)	91 ± 6.4 µg/mL (≈ 266 µM)	199 to 201 °C	–
Brc1cccc(CSc2nn3c(-c4ccccc4)nnc3s2)c1 [Compound 6j, 6-((3-bromobenzyl)thio)-3-phenyl-[1,2,4]triazolo[3,4-b][1,3,4]thiadiazole]	1.05 ± 0.34 µM	> 256 µg/mL	256 µg/mL (≈ 635 µM)	111 ± 4.8 µg/mL (≈ 276 µM)	112 ± 6.9 µg/mL (≈ 278 µM)	225 to 227 °C	–
CSc1nn2c(-c3ccccc3)nnc2s1 [Compound 6o, 6-(methylthio)-3-phenyl-[1,2,4]triazolo[3,4-b][1,3,4]thiadiazole]	–	–	–	–	–	213 to 215 °C	–
Clc1cccc(CSc2nn3c(-c4ccccc4)nnc3s2)c1 [Compound 6f, 6-((3-chlorobenzyl)thio)-3-phenyl-[1,2,4]triazolo[3,4-b][1,3,4]thiadiazole]	1.25 ± 0.19 µM	1 µg/mL (≈ 2.79 µM)	256 µg/mL (≈ 713 µM)	87.5 ± 8.1 µg/mL (≈ 244 µM)	73.2 ± 5.5 µg/mL (≈ 204 µM)	216 to 218 °C	MFC/MBC [3]: 2 µg/mL (≈ 5.57 µM)
Clc1ccccc1CSc1nn2c(-c3ccccc3)nnc2s1 [Compound 6e, 6-((2-chlorobenzyl)thio)-3-phenyl-[1,2,4]triazolo[3,4-b][1,3,4]thiadiazole]	8.32 ± 1.21 µM	> 256 µg/mL	256 µg/mL (≈ 713 µM)	102 ± 3.3 µg/mL (≈ 284 µM)	93.3 ± 5.2 µg/mL (≈ 260 µM)	224 to 226 °C	MIC (µg/mL) [3]: almost inactive
Brc1ccccc1CSc1nn2c(-c3ccccc3)nnc2s1 [Compound 6i, 6-((2-bromobenzyl)thio)-3-phenyl-[1,2,4]triazolo[3,4-b][1,3,4]thiadiazole]	1.59 ± 0.14 µM	> 256 µg/mL	256 µg/mL (≈ 635 µM)	112 ± 6.7 µg/mL (≈ 278 µM)	109 ± 6.2 µg/mL (≈ 271 µM)	210 to 212 °C	–
Fc1cccc(CSc2nn3c(-c4ccccc4)nnc3s2)c1 [Compound 6c, 6-((3-fluorobenzyl)thio)-3-phenyl-[1,2,4]triazolo[3,4-b][1,3,4]thiadiazole]	1.4 ± 0.29 µM	> 256 µg/mL	256 µg/mL (≈ 748 µM)	117 ± 6.4 µg/mL (≈ 343 µM)	79.8 ± 3.5 µg/mL (≈ 233 µM)	216 to 218 °C	–
CCNc1nnc(Cc2nc3ccccc3c(=O)n2Cc2ccc(F)cc2)s1 [E]	–	–	–	–	–	–	IC50 ([1]; urease): 1.88 ± 0.17 µg/mL
COc1ccc(NC(=O)NCc2cn(Cc3ccc(Cl)cc3Cl)nn2)cc1 [B]	–	–	–	–	–	–	IC50 ([1]; urease, read-out: IC50): 22810 ± 50 nM
O=[N+]([O-])c1ccc(CSc2nn3c(-c4ccccc4)nnc3s2)cc1 [Compound 6l, 6-((4-nitrobenzyl)thio)-3-phenyl-[1,2,4]triazolo[3,4-b][1,3,4]thiadiazole]	–	–	–	–	–	–	IC50 [2, 7]: 2.22 ± 0.18 µM; MIC [3]: > 256 µg/mL; MIC [4]: 256 µg/mL (≈ 693 µM); urease inhibitory activity IC50 (µg/mL) ± SD ([5]; C. neoformans): 113.6 ± 5.4 µg/mL; urease inhibitory activity IC50 (µg/mL) ± SD [6]: 91.8 ± 7.0 µg/mL
O=C(NC1CCCCC1)C(c1cccs1)N(C(=O)CSc1nnc(-c2ccc([N+](=O)[O-])o2)s1)c1ccccc1 (centres unmarked) [F]	–	–	–	–	–	–	improvement in the inhibitory potency against urease compared to thiourea [1]: tenfold; mode of inhibition ([1]; urease): non-competitive
Clc1ccc(CSc2nn3c(-c4ccccc4)nnc3s2)cc1 [Compound 6g, 6-((4-chlorobenzyl)thio)-3-phenyl-[1,2,4]triazolo[3,4-b][1,3,4]thiadiazole]	1.68 ± 0.73 µM	2 µg/mL (≈ 5.57 µM)	256 µg/mL (≈ 713 µM)	–	75.4 ± 6.1 µg/mL (≈ 210 µM)	218 to 220 °C	MFC/MBC [3]: 4 µg/mL (≈ 11.1 µM); urease inhibitory activity IC50 (µg/mL) ± SD ([5]; C. neoformans): 94.3 ± 5.9 µg/mL; IC50 ([5]; read-out: urease inhibitory activity IC50 (µg/mL) ± SD, C. neoformans): 93.3 µg/mL (≈ 260 µM)
Clc1ccc(CSc2nn3c(-c4ccccc4)nnc3s2)cc1Cl [Compound 6h, 6-((3,4-dichlorobenzyl)thio)-3-phenyl-[1,2,4]triazolo[3,4-b][1,3,4]thiadiazole]	1.41 ± 0.32 µM	0.5 µg/mL (≈ 1.27 µM)	256 µg/mL (≈ 651 µM)	83.7 ± 3.2 µg/mL (≈ 213 µM)	74.5 ± 4.7 µg/mL (≈ 189 µM)	215 to 217 °C	MFC/MBC [3]: 0.5 µg/mL (≈ 1.27 µM)
Cc1ccccc1CSc1nn2c(-c3ccccc3)nnc2s1 [Compound 6m, 6-((2-methylbenzyl)thio)-3-phenyl-[1,2,4]triazolo[3,4-b][1,3,4]thiadiazole]	–	–	–	–	–	–	IC50 [2, 7]: 1.6 ± 0.23 µM; MIC [3]: > 256 µg/mL; MIC [4]: 256 µg/mL (≈ 756 µM); urease inhibitory activity IC50 (µg/mL) ± SD ([5]; C. neoformans): 110.9 ± 3.8 µg/mL; urease inhibitory activity IC50 (µg/mL) ± SD [6]: 95.7 ± 6.6 µg/mL
OC(Cn1cncn1)(Cn1cncn1)c1ccc(F)cc1F [Fluconazole, reference compound]	–	2 µg/mL (≈ 6.53 µM)	–	–	–	–	–
Cc1cccc(C)c1Nc1nnc(-c2ccc(Cl)cc2)s1 [D]	–	–	–	–	–	–	IC50 ([1]; urease, read-out: IC50): 214700 ± 160 nM
Fc1ccccc1CSc1nn2c(-c3ccccc3)nnc2s1 [Compound 6b, 6-((2-fluorobenzyl)thio)-3-phenyl-[1,2,4]triazolo[3,4-b][1,3,4]thiadiazole]	1.51 ± 0.21 µM	> 256 µg/mL	256 µg/mL (≈ 748 µM)	111 ± 7.4 µg/mL (≈ 324 µM)	87.3 ± 4.9 µg/mL (≈ 255 µM)	190 to 192 °C	–
Cc1ncc([N+](=O)[O-])n1Cc1cn(Cc2ccc(F)cc2)nn1 [C]	–	–	–	–	–	–	IC50 ([1]; urease, read-out: IC50): 1980 ± 250 nM
Cc1cccc(CSc2nn3c(-c4ccccc4)nnc3s2)c1 [Compound 6n, 6-((3-methylbenzyl)thio)-3-phenyl-[1,2,4]triazolo[3,4-b][1,3,4]thiadiazole]	–	–	–	–	–	–	IC50 [2, 7]: 1.23 ± 0.56 µM; MIC [3]: > 256 µg/mL; MIC [4]: 256 µg/mL (≈ 756 µM); urease inhibitory activity IC50 (µg/mL) ± SD ([5]; C. neoformans): 112.3 ± 4.6 µg/mL; urease inhibitory activity IC50 (µg/mL) ± SD [6]: 96.8 ± 4.7 µg/mL
NC(N)=S [Thiourea, reference compound]	–	–	–	–	–	–	IC50 [2, 7]: 22.5 ± 2.34 µM
